In publication PMC4350406, “Mechanism of Action of 2-Aminobenzamide HDAC Inhibitors in Reversing Gene Silencing in Friedreich’s Ataxia” (Frontiers in Neurology, 2015):
Entries after “also recorded” stand apart in the source; their conditions may differ. Read-outs that look alike come from different tables or passages of the source.

Assays:
FXN mRNA [1] = settings: cited from earlier work; for effect on FXN gene expression: lymphoid cells
FXN mRNA [2] = test system: FXN mRNA; parameters: method as in PMID 12516053; settings: cited from earlier work
FXN mRNA [3] = assay: qRT-PCR of FXN mRNA in FRDA iPSC-derived neurons treated with HDAC inhibitors; assay type: cell-based, human; settings: for effect on FXN mRNA levels: 16-day-old FRDA neurons, 24 h, varying concentrations (Figure 2); for up-regulation of FXN mRNA: 10 μM for 24 h, data not shown
Description: (§1) All methods for iPSC derivation ([32]) and neuronal differentiation ([28], [33]) have been presented. […] Quantitative RT-PCR was performed as described ([28]), with the following primer pairs: • FXN: 5′-[…]-3′ and 5′-[…]-3′ • HDAC1: 5′-[…]-3′ and 5′-[…]-3′ • HDAC2: 5′-[…]-3′ and 5′-[…]-3′ • HDAC3: 5′-[…]-3′ and 5′-[…]-3′ • PCGF2: 5′-[…]-3′ and 5′-[…]-3′ • H2AFY2: 5′-[…]-3′ and 5′-[…]-3′
(§2) Data were normalized to RNA concentration and p values calculated using the t-test. Western blotting was performed as described ([28]), with antibodies to HDACs 1, 2, and 3 from Abcam (ab7028, ab7029, ab7030, respectively), used at a dilution of 1:5000. […] Protein concentrations were determined with the BCA assay (Thermo Scientific).

H2AFY2 mRNA = assay: qRT-PCR of H2AFY2 mRNA in FRDA neuronal cells; assay type: cell-based, human; settings: 24 h
Description: as §1, §2

PCGF2 mRNA = assay: qRT-PCR of PCGF2 mRNA in FRDA neuronal cells; assay type: cell-based, human; settings: 24 h
Description: as §1, §2

[4] = parameters: method as in PMID 25159818; settings: preclinical studies; cited from earlier work
[5] = parameters: method as in PMID 27721337, PMID 22973455; settings: in vivo, cited from earlier work
Recombinant human HDAC1 [6] = target: T1, Recombinant human HDAC1 (Homo sapiens, UniProt Q13547); settings: cited from earlier work
FXN mRNA [7] = test system: FXN mRNA; parameters: method as in PMID 25159818; settings: cited from earlier work
HDAC = test system: HDAC; parameters: method as in PMID 16921367, PMID 18953021; settings: cited from earlier work
FXN mRNA [8] = test system: FXN mRNA; parameters: method as in PMID 16921367; settings: FRDA primary lymphocytes; cited from earlier work
[9] = target: T2, Recombinant human HDAC3/NCoR2 (Homo sapiens, UniProt O15379); settings: cited from earlier work
Recombinant human HDAC1 [10] = target: T1, Recombinant human HDAC1; assay: HDAC1 deacetylase activity assay (acetyl-Lys(Ac)-AMC / Lys-C peptidase, progression curves)
[11] = target: T2, Recombinant human HDAC3/NCoR2; assay: HDAC3/NCoR2 deacetylase activity assay (acetyl-Lys(Ac)-AMC / Lys-C peptidase, progression curves)
[12] = cited from earlier work
[13] = fit of kobs versus inhibitor concentration
[14] = progression curves, mechanism 2
[15] = progression curves, mechanism 1

T1 sequence (Q13547 whole entry): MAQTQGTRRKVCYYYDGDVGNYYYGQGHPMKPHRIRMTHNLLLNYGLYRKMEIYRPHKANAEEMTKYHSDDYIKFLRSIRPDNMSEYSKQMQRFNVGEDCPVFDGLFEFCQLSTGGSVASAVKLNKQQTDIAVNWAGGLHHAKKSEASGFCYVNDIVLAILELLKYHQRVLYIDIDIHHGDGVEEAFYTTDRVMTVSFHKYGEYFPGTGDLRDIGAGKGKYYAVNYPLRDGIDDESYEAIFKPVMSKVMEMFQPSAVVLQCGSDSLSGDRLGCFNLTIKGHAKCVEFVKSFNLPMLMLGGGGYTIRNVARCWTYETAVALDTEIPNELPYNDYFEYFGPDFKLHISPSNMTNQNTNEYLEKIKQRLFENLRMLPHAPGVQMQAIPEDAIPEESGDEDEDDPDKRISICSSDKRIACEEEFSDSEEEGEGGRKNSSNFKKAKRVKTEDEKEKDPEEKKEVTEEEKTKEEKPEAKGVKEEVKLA
T2 sequence (O15379 whole entry): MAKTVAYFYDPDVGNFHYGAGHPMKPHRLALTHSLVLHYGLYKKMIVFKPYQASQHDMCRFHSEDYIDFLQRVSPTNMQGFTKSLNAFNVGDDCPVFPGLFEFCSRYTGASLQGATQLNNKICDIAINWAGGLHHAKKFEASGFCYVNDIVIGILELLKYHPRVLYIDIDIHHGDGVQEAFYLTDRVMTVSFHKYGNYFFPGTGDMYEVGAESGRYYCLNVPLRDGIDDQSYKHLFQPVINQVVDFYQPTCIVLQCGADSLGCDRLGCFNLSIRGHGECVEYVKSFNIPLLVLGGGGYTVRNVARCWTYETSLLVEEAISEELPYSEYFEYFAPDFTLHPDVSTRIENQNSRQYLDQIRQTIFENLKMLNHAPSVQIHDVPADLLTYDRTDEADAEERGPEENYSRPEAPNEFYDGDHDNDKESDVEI
T2 sequence (Q9Y618 395-489 partner limits assumed): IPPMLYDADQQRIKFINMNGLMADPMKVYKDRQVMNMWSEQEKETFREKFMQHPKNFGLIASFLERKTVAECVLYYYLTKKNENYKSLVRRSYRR

NC(=O)c1cccnc1 [nicotinamide]
FXN mRNA levels (FXN mRNA [1]; FRDA lymphoblasts): increases FXN mRNA levels

CCCC(=O)[O-].[Na+] [sodium butyrate]
ability to increase FXN mRNA expression (FXN mRNA [2]): only a modest effect

Cc1ccc(C(=O)NCCCCCC(=O)Nc2ccc(F)cc2N)cc1 [HDACi 136, N-(6-(2-amino-4-fluorophenylamino)-6-oxohexyl)-4-methylbenzamide]
effect on FXN mRNA levels (FXN mRNA [3]): only a modest effect; also recorded: inactive | H2AFY2 mRNA level (H2AFY2 mRNA; 5 μM (lower concentrations)): inactive at lower concentrations | H2AFY2 mRNA level (H2AFY2 mRNA; 10 μM): moderately active | PCGF2 mRNA level (PCGF2 mRNA; 5 μM (lower concentrations)): inactive at lower concentrations | PCGF2 mRNA level (PCGF2 mRNA; 10 μM): moderately active

c1ccc2[nH]cnc2c1 [benzimidazole]
risk category for inducing QTc prolongation [4]: high-risk category

Cc1ccc(C(=O)NCCCCCC(=O)Nc2ccccc2N)cc1 [HDACi 109, N-(6-(2-aminophenylamino)-6-oxohexyl)-4-methylbenzamide]
metabolic conversion / benzimidazole formation [5]: conversion of the active molecule into an inactive metabolic product | metabolic conversion / benzimidazole formation ([5]; listed as 109/RG2833): conversion of the active molecule into inactive, potentially toxic metabolic products

Nc1ccc(-c2cccs2)cc1NC(=O)CCCCCCNC(=O)c1cccnc1 [HDACi 233, N-(2-amino-5-(2-thienyl)phenyl)-7-nicotinoylamino-heptanamide]
up-regulation of FXN mRNA (FXN mRNA [3]; FRDA neuronal cells): did not | selectivity for HDAC1 over HDAC3 (Recombinant human HDAC1 [6]): > 200 fold | induction of FXN gene expression in FRDA neuronal cells (FXN mRNA [7]): weakly active

Nc1ccccc1NC(=O)CCCCCCC(=O)Nc1ccccc1 [BML-210, N^1-(2-aminophenyl)-N^8-phenyloctanediamide]
FXN mRNA expression (FXN mRNA [1]; FRDA lymphoblasts): significant increase

CC(/C=C/C(=O)NO)=C\[C@@H](C)C(=O)c1ccc(N(C)C)cc1 [TSA]
effect on FXN gene expression (FXN mRNA [1]): without effect on FXN gene expression | inhibition mechanism (HDAC): rapid-on/rapid-off inhibitors

Cc1ccc(NC(=O)CCCCCC(=O)Nc2ccccc2N)cc1 [HDACi 106]
inhibition mechanism HDAC1 (Recombinant human HDAC1 [6]): slow-on/slow-off inhibitor | metabolic conversion / benzimidazole formation [5]: conversion of the active molecule into an inactive metabolic product

Nc1ccccc1NC(=O)CCCCCC(=O)Nc1ccccc1 [4b, N^1-(2-aminophenyl)-N^7-phenylheptanediamide]
FXN mRNA levels (FXN mRNA [8]): significantly increase FXN mRNA levels

Nc1ccc(-c2ccccc2)cc1NC(=O)CCCCCC(=O)Nc1ccccc1 [HDACi 3, N^1-(4-aminobiphenyl-3-yl)-N^7-phenylheptanediamide]
effect on FXN mRNA levels (FXN mRNA [3]): no effect; also recorded: weakly active | IC50 (Recombinant human HDAC1 [6]): 127 nM | IC50 [9]: 9.6 µM | inhibition mechanism HDAC1 (Recombinant human HDAC1 [10]; [13]): slow-on/slow-off inhibition mechanism 2 | preference for HDAC1 over HDAC3 comparing IC50 values (Recombinant human HDAC1 [10]; from Table 1 values): ~ 75 fold | preference for HDAC1 over HDAC3 from Ki measurements (Recombinant human HDAC1 [10]; from Table 1 values): ~ 350 fold | k2 HDAC1 (Recombinant human HDAC1 [10]; [14]): k2 = 0.1675 min^−1 | k−2 HDAC1 (Recombinant human HDAC1 [10]; [14]): k−2 = 0.0017 min^−1 | inhibition mechanism HDAC3 [11, 13]: mechanism 1 | k1 HDAC3 [11, 15]: k1 = 600 min^-1 M^−1 | k−1 HDAC3 [11, 15]: k−1 = 0.0015 min^−1 | Selectivity HDAC3 (from IC50) ([11]; ratio of IC50 HDAC1 to IC50 HDAC3, from data of refs 25, 26): 0.013

O=C(CCCCCCC(=O)Nc1ccccc1)NO [SAHA]
effect on FXN gene expression (FXN mRNA [1]): without effect on FXN gene expression

Nc1cc(F)ccc1NC(=O)/C=C/c1cnn(CC=Cc2ccccc2)c1 [HDACi 966, (E)-N-(2-amino-4-fluorophenyl)-3-(1-cinnamyl-1H-pyrazol-4-yl)acrylamide]
up-regulation of FXN mRNA (FXN mRNA [3]; FRDA neuronal cells): did not | selectivity for HDAC3 over HDAC1/2 [9]: ~ 30 fold | induction of FXN gene expression in FRDA neuronal cells (FXN mRNA [7]): inactive

Nc1ccccc1NC(=O)/C=C/c1cn(C/C=C/c2ccccc2)nn1 [Click-1]
FXN mRNA increase compared with HDACi 109 (FXN mRNA [3]; FRDA neuronal cells, varying concentrations (Figure 6B)): equivalent activities; also recorded: no loss of activity | H2AFY2 mRNA level (H2AFY2 mRNA; 5 μM (lower concentrations)): significantly down-regulate | PCGF2 mRNA level (PCGF2 mRNA; 5 μM (lower concentrations)): significantly down-regulate | brain/plasma ratio [12]: > 0.7 | metabolic conversion / benzimidazole formation [5]: stability to benzimidazole formation
